The results in this text go back to patent US9707244B2, “Compositions and methods for treating conditions that affect epidermis” (Gencia Corporation, priority 2013, dated 2017).

In one assay the test system is fibroblasts. Put plainly: Oxygen consumption rate (XF24 extracellular flux analyzer) in fibroblasts. It is filed as cell-based. Conditions: 5 nM to 500 nM; within thirty minutes of treatment; compared to 10 μM unmodified creatine. As to the method: In this assay, an XF24 extracellular flux analyzer (Seahorse Bioscience, North Billerica, Mass.) was used to measure mitochondrial oxygen consumption in intact cells. The XF24 analyzer creates a transient 7 μL chamber in specialized microplates that allows determination of oxygen and proton concentrations in real time through the measurement of oxygen sensitive dyes by the XF24 instrument. 24 hours prior to OCR measurement, fibroblasts were seeded into 20 wells of the 24 well tissue culture plate while 1 ml of XF Calibrant solution (Seahorse Bioscience, North Billerica, Mass.) was added to each well of a 24 well dual-analyte sensor cartridge (Seahorse Bioscience, North Billerica, Mass.). The sensor cartridge repositioned on the 24 well calibration plate, and the plate was incubated overnight at 37° C. without additional CO2.
On the day of the experiment, the injection ports on the sensor cartridge were loaded with compound A-1 or creatine as indicated at 10× concentrations and placed into the XF24 Flux Analyzer for automated calibration. […]
The results of the assay for Mitocreatine at 5 nM, 10 nM, 50 nM, and 500 nM concentrations are shown in FIG. 2 as a percent change from the untreated control. For comparison, the results obtained Mitocreatine were compared with the percent increase in oxygen consumption rate measured upon addition of 10 μM creatine.

For another assay, the system named is C57BL/6J mice. Nature of the assay: Forced treadmill endurance test. It is filed as in vivo. To be noted: 10, 20, 30 mg/kg p.o. once daily for 30 days. As to the method:
Group Setting: C57BL/6J mice were randomly assigned into five groups with different treatment started with balanced full-paw and fore-paw grip strength. Seventy five female mice were dosed at 4 PM for 30 consecutive days (qd). • 1. Vehicle (p.o. via oral gavage once daily for 30 days, n=15) • 2. Creatine (300 mg/kg, p.o. via oral gavage once daily for 30 days, n=15) • 3. Mitocreatine (10 mg/kg, p.o. via oral gavage once daily for 30 days, n=15) • 4. Mitocreatine (20 mg/kg, p.o. via oral gavage once daily for 30 days, n=15) • 5. Mitocreatine (30 mg/kg, p.o. via oral gavage once daily for 30 days, n=15). 75 mice (group 1-5) were tested on the treadmill with a previously optimized protocol as described below. The mice were habituized to the treadmill at two separate occasions, with a habituation protocol. Mice were allowed to acclimate to the testing room for at least 30 min before tested. Mice were initially placed on a treadmill running at 5 m/min for 2 minutes. The treadmill belt was set horizontally. The treadmill speed was then increased to 20 m/min in […] at steps of 5 m/min in every 10 sec with the shocking grid set at 0.2 mA. Mice were allowed to run for 20 minutes. […] The total running time until exhaustion was recorded. […] Data were expressed as Mean±S.E.M. and analyzed with one-way ANOVA followed by Bonferroni test compared to vehicle group, *P<0.05, **P<0.01 (FIG. 32).

Assay [1] relates to Human hepatocellular liver carcinoma cell line HepG2. Nature of the assay: Survival of HepG2 cells treated with chemotherapeutic agents (DAPI fluorescence). In kind it is cell-based. Conditions: Cetuximab, Gemcitabine or Temozolomide; 48 hours. As to the method: Fibroblasts were incubated with increasing amounts of Mitocreatine and certain anti-neoplastic agents, such as Cetuximab, Gemcitabine and Temozolomide. After incubation, cells were washed and the number of adherent (i.e. surviving) cells was assessed by DAPI fluorescence, which was measured utilizing a plate reader (PHERA Star FS from BMG Labtech). For these experiments two kinds of cells were used. Either the Human hepatocellular liver carcinoma cell line HepG2, or the BJ human fibroblast cells, which are established from normal human foreskin. […] Mitocreatine and the antineoplastic agent were added simultaneously.

Assay [2] deals with EpiDerm Full Thickness 400 (EFT-400) tissues. Nature of the assay: Mattek full-thickness skin model (EFT-400) skin thickness. In kind it is cell-based. Conditions: 25 nM with corticosteroid, 14 days; on average; p<0.001. As to the method: Following the protocol of Schoepe, we used the FTSM model to determine if co-treatment with Mitocreatine would reduce the loss in skin thickness produced by glucocorticoids.
2.5 mL of EpiDerm Full Thickness 400 (EFT-400) medium was dispensed into each well of the four 6-well plates aseptically in the tissue culture hood. The plates containing the EFT-400 tissues were removed from their plastic packaging and transferred using sterile forceps into the 6-well plates containing the 2.5 mL of EFT-400 media, making sure that no agarose adheres to the insert and that the media makes full contact with the underside of the tissue insert membrane (no air bubbles under the insert). The apical surface of the tissue should remain exposed to air (no media should be added to the side of the insert).
The tissues were equilibrated overnight at 37° C., 5% CO2. Treatment conditions are listed below in Table 5.
Day 2-13: The plates were visually examined and the media containing the test compounds was replenished each day.
Day 15: The inserts were dislodged from the support and the tissue carefully removed from the support with a scalpel.
The tissues were placed in 50 mL conical tubes containing 10% phosphate buffered formalin and sent for sectioning, histological processing and H&E staining Slides were visualized using a Leica Stereoscope equipped with a digital camera. Images were acquired and measured using ExoLabs software. Data was tabulated in Excel and the results were analyzed.

Structures are written as SMILES.

`CN(CC(=O)NCCC[P+](c1ccccc1)(c1ccccc1)c1ccccc1)C(=N)N.Cl.[Cl-]` [Mitocreatine, N^2-[ammonio(imino)methyl]-N^2-methyl-N-[3-(triphenylphosphonio)propyl] glycinamide dichloride]: the oxygen consumption rate result with fibroblasts is “significant increase in oxygen consumption rate”. The “endurance (total running time)” value with C57BL/6J mice was “Increases Endurance”. The “survival of HepG2 cells” value in assay [1] was “not improve the survival”. Further, the “improvement of skin thickness” value in assay [2] turned out to be 50%.
